Assay results published in patent US12612637B2, “Compositions and methods for DHFR tunable protein regulation” (Obsidian Therapeutics, Inc., priority 2019, dated 2026).
Read-outs that look alike come from different tables or passages of the source.

Key:
Jurkat cells = assay: FACS GFP expression of transduced Jurkat cells treated with DMSO, 2 μM or 50 μM TMP; assay type: cell-based; conditions: 2 μM TMP or 50 μM TMP, 24 hours
Experimental: Clones selected from the final library after 4 rounds of sorting were cloned into pLVX.AcGFP.P2A.mcherry constructs and transduced into Jurkat cells for further characterization of DD activity. Transduced Jurkat cells were plated using 500,000 cells per well (1 ml total volume per well in 24 well plate) in duplicate for each condition. Cells were treated with DMSO (control), 2 μM TMP or 50 μM trimethoprim (TMP) for 24 hours prior to fluorescent activated cell sorting (FACS). Cells were characterized by FACS to determine their levels of GFP in the presence and absence of TMP.

[1] = cited from earlier work; for Duration of action: in vivo

Compound | GFP expression upon addition of TMP (Jurkat cells) | Cmax ([1]; IV) | Cmax ([1]; PO) | Duration of action [1]
hDHFR-045: hDHFR (Y122I) library clone cloned into pLVX.AcGFP.P2A.mcherry construct | higher levels of GFP expression upon addition of TMP |  |  | 
COc1cc(Cc2cnc(N)nc2N)cc(OC)c1OC [Trimethoprim] |  | 25 µM | 1 µM | 2 to 72 h
CN(Cc1cnc2nc(N)nc(N)c2n1)c1ccc(C(=O)N[C@@H](CCC(=O)O)C(=O)O)cc1 [Methotrexate] |  |  |  | >12 h
hDHFR-046: hDHFR (Y122I) library clone cloned into pLVX.AcGFP.P2A.mcherry construct | higher levels of GFP expression upon addition of TMP |  |  | 
